Where “and” joins values, the source holds several entries; their conditions need not be identical. Equal entries are not always repeated. Calls of active or inactive are those of the source. The calls are words filed in the database; no cut-off is given here.
Assays:
[1] = Clearance in Sprague-Dawley rat at 100 mg/kg, po measured upto 480 mins by LC-MS/MS analysis; type: ADME, organism-based; settings: in vivo
[2] = tested on: Mus musculus; test: Anticonvulsant activity in ip dosed Kunming mouse assessed as reduction in ScPTZ-induced seizure administered 0.5 hrs before ScPTZ stimulation; type: functional
[3] = Volume of distribution at steady state in Sprague-Dawley rat at 20 mg/kg, iv measured upto 480 mins by LC-MS/MS analysis; type: ADME, organism-based; settings: in vivo, read-out: Vdss
[4] = Clearance in Sprague-Dawley rat at 20 mg/kg, po measured upto 480 mins by LC-MS/MS analysis; type: ADME, organism-based; settings: in vivo
[5] = Cmax in Sprague-Dawley rat at 50 mg/kg, po measured upto 480 mins by LC-MS/MS analysis; type: ADME, organism-based; design: dose 50 mg/kg, route oral; settings: in vivo
[6] = tested on: Mus musculus; test: Anticonvulsant activity in ip dosed Kunming mouse assessed as MES-induced hind limb extension administered 0.5 hrs before MES stimulation; type: functional
[7] = Half life in Sprague-Dawley rat at 20 mg/kg, po measured upto 480 mins by LC-MS/MS analysis; type: ADME, organism-based; settings: in vivo
[8] = Volume of distribution at steady state in Sprague-Dawley rat at 100 mg/kg, po measured upto 480 mins by LC-MS/MS analysis; type: ADME, organism-based; settings: in vivo, 8 h
[9] = Neurotoxicity against Kunming mouse assessed as time remained in rod at 100 mg/kg, ip administered 0.5 to 2 hrs by rotarod test; type: toxicity, organism-based; settings: in vivo
[10] = tested on: Mus musculus; test: Anticonvulsant activity in Kunming mouse assessed as reduction in Sc3-MP-induced tonic seizure rate at 300 mg/kg, ip administered 0.5 hrs before Sc3-MP stimulation relative to control; type: functional; design: scale not given: the % may be the effect or the level left
[11] = tested on: Mus musculus; test: Anticonvulsant activity in Kunming mouse assessed as MES-induced hind limb extension at 50 mg/kg, ip administered 0.5 to 4 hrs before MES stimulation relative to control; type: functional
[12] = Cmax in Sprague-Dawley rat at 20 mg/kg, iv measured upto 480 mins by LC-MS/MS analysis; type: ADME, organism-based; design: dose 20 mg/kg, route intravenous; settings: in vivo
[13] = tested on: Mus musculus; test: Anticonvulsant activity in Kunming mouse assessed as reduction in Sc3-MP-induced seizure at 300 mg/kg, ip administered 0.5 hrs before Sc3-MP stimulation relative to control; type: functional; design: scale not given: the % may be the effect or the level left
[14] = tested on: Mus musculus; test: Anticonvulsant activity in Kunming mouse assessed as reduction in ScPTZ-induced clonic seizure at 300 mg/kg, ip administered 0.5 hrs before ScPTZ stimulation relative to control; type: functional; design: scale not given: the % may be the effect or the level left
[15] = Oral bioavailability in Sprague-Dawley rat at 100 mg/kg measured upto 480 mins by LC-MS/MS analysis; type: ADME, organism-based; settings: in vivo
[16] = tested on: Mus musculus; test: Anticonvulsant activity in Kunming mouse assessed as MES-induced hind limb extension at 100 mg/kg, ip administered 0. 5 to 2 hrs before MES stimulation; type: functional, organism-based
[17] = Tmax in Sprague-Dawley rat at 50 mg/kg, po measured upto 480 mins by LC-MS/MS analysis; type: ADME, organism-based; settings: in vivo
[18] = tested on: Mus musculus; test: Anticonvulsant activity in Kunming mouse assessed as reduction in ScPTZ-induced seizure at 100 mg/kg, ip administered 0.25 and 1 hrs before ScPTZ stimulation relative to control; type: functional; design: scale not given: the % may be the effect or the level left
[19] = organism: Homo sapiens; test: Inhibition of human LDH5 at 0.5 mM using sodium pyruvate as substrate measured for 60 sec for every 5 mins by LC/MS-MS analysis
[20] = tested on: Mus musculus; test: Anticonvulsant activity in Kunming mouse assessed as reduction in ScPTZ-induced seizure at 300 mg/kg, ip administered 0.25 to 2 hrs before ScPTZ stimulation relative to control; type: functional; design: scale not given: the % may be the effect or the level left
[21] = (§1) Protective index, ratio of TD50 for neurotoxicity against ip dosed Kunming mouse assessed as time remained in rod measured at 0.5 hrs by rotarod test to ED50 for […] activity in ip dosed Kunming mouse assessed as reduction in formalin-induced paw licking administered 0.5 hrs before formalin stimulation; type: toxicity, organism-based; settings: in vivo, read-out: PI
[22] = tested on: Mus musculus; test: Anticonvulsant activity in Kunming mouse assessed as reduction in ScPTZ-induced tonic seizure rate at 100 mg/kg, ip administered 0.5 hrs before ScPTZ stimulation relative to control; type: functional; design: scale not given: the % may be the effect or the level left
[23] = Half life in Sprague-Dawley rat at 50 mg/kg, po measured upto 480 mins by LC-MS/MS analysis; type: ADME, organism-based; settings: in vivo
[24] = organism: Homo sapiens; test: Inhibition of human LDH1 at 0.5 mM using sodium pyruvate as substrate by UV-VIS spectrophotometry method relative to control
[25] = tested on: Mus musculus; test: […] activity in ip dosed Kunming mouse assessed as reduction in formalin-induced paw licking administered 0.5 hrs before formalin stimulation; type: functional
[26] = tested on: Mus musculus; test: Anticonvulsant activity in Kunming mouse assessed as reduction in Sc3-MP-induced clonic seizure rate at 300 mg/kg, ip administered 0.5 hrs before Sc3-MP stimulation relative to control; type: functional; design: scale not given: the % may be the effect or the level left
[27] = Half life in Sprague-Dawley rat at 20 mg/kg, iv measured upto 480 mins by LC-MS/MS analysis; type: ADME, organism-based; settings: in vivo
[28] = Half life in Sprague-Dawley rat at 100 mg/kg, po measured upto 480 mins by LC-MS/MS analysis; type: ADME, organism-based; settings: in vivo
[29] = tested on: Mus musculus; test: Anticonvulsant activity in Kunming mouse assessed as reduction in Sc3-MP-induced seizure ip dosed measured at 0.5 hrs before Sc3-MP stimulation; type: functional
[30] = AUC in Sprague-Dawley rat at 20 mg/kg, iv measured upto 480 mins by LC-MS/MS analysis; type: ADME, organism-based; design: time < 8 hr, dose 20 mg/kg, route intravenous; settings: in vivo
[31] = tested on: Mus musculus; test: Anticonvulsant activity in Kunming mouse assessed as MES-induced hind limb extension at 50 mg/kg, ip administered 0.5 and 2 hrs before MES stimulation relative to control; type: functional
[32] = Tmax in Sprague-Dawley rat at 20 mg/kg, po measured upto 480 mins by LC-MS/MS analysis; type: ADME, organism-based; settings: in vivo
[33] = tested on: Mus musculus; test: Anticonvulsant activity in Kunming mouse assessed as MES-induced hind limb extension at 100 mg/kg, ip administered 0. 5 to 4 hrs before MES stimulation relative to control; type: functional
[34] = tested on: Mus musculus; test: Anticonvulsant activity in Kunming mouse assessed as reduction in ScPTZ-induced clonic seizure at 100 mg/kg, ip administered 0.5 hrs before ScPTZ stimulation relative to control; type: functional; design: scale not given: the % may be the effect or the level left
[35] = Tmax in Sprague-Dawley rat at 100 mg/kg, po measured upto 480 mins by LC-MS/MS analysis; type: ADME, organism-based; settings: in vivo
[36] = AUC in Sprague-Dawley rat at 100 mg/kg, po measured upto 480 mins by LC-MS/MS analysis; type: ADME, organism-based; design: dose 100 mg/kg, time < 8 hr, route oral; settings: in vivo
[37] = Cmax in Sprague-Dawley rat at 20 mg/kg, po measured upto 480 mins by LC-MS/MS analysis; type: ADME, organism-based; design: dose 20 mg/kg, route oral; settings: in vivo
[38] = Oral bioavailability in Sprague-Dawley rat at 20 mg/kg measured upto 480 mins by LC-MS/MS analysis; type: ADME, organism-based; settings: in vivo
[39] = Clearance in Sprague-Dawley rat at 50 mg/kg, po measured upto 480 mins by LC-MS/MS analysis; type: ADME, organism-based; settings: in vivo
[40] = Clearance in Sprague-Dawley rat at 20 mg/kg, iv measured upto 480 mins by LC-MS/MS analysis; type: ADME, organism-based; settings: in vivo
[41] = Volume of distribution at steady state in Sprague-Dawley rat at 20 mg/kg, po measured upto 480 mins by LC-MS/MS analysis; type: ADME, organism-based; settings: in vivo, 8 h
[42] = as §1, with “Sc3-MP-induced seizure” for “formalin-induced paw licking”, “Sc3-MP” for “formalin”; type: toxicity, organism-based; settings: in vivo, read-out: PI

SMILES: COc1cc(OC)c(OC)cc1/C=C/COC(=O)/C=C/c1c(OC)cc(OC)c(OC)c1OC
- CL/F [1]: 520 mL/min/kg
- ED50 [2]: 154 mg/kg and 326 µmol/kg
- Vd [3]: 2.14 L/kg
- CL/F [4]: 380 mL/min/kg
- Cmax [5]: 2040 ng/mL
- ED50 [6]: 71.4 µmol/kg and 33.9 mg/kg
- half-life [7]: 57.9 min
- Vdss [8]: 11.26 L/kg
- Activity [9]: Non-Toxic
- Activity [10]: 50%
- Activity [11]: 50%
- Cmax [12]: 6480 ng/mL
- Activity [13]: 50%
- Activity [14]: 100%
- bioavailability [15]: 36.5%
- Activity [16]: Active
- Tmax [17]: 38.7 min
- Activity [18]: 75%
- inhibition [19]: 27%
- Activity [20]: 50%
- selectivity ratio at 0.5 h [21]: 21.6
- Activity [22]: 25%
- half-life [23]: 59.2 min
- inhibition [24]: 21%
- ED50 [25]: 46.3 mg/kg and 97.6 µmol/kg
- Activity [26]: 100%
- half-life [27]: 22.8 min
- half-life [28]: 58.5 min
- ED50 [29]: 203 mg/kg and 428 µmol/kg
- AUC at 8 h [30]: 3000 ng·h/mL
- Activity [31]: 75%
- Tmax [32]: 37.1 min
- Activity [33]: 25 - 100%
- Activity [34]: 100%
- Tmax [35]: 38.8 min
- AUC at 8 h [36]: 5480 ng·h/mL
- Cmax [37]: 980 ng/mL
- bioavailability [38]: 43.4%
- CL/F [39]: 450 mL/min/kg
- clearance [40]: 140 mL/min/kg
- Vdss [41]: 9.86 L/kg
- selectivity ratio at 0.5 h [42]: 4.6

SMILES: COc1cc(OC)c(OC)cc1/C=C/COC(=O)/C=C/c1cc(OC)c(OC)c(OC)c1OC
- CL/F [1]: 560 mL/min/kg
- ED50 [2]: 155 mg/kg and 327 µmol/kg
- Vd [3]: 1.98 L/kg
- CL/F [4]: 390 mL/min/kg
- Cmax [5]: 1890 ng/mL
- ED50 [6]: 65.1 µmol/kg and 30.9 mg/kg
- half-life [7]: 55.8 min
- Vdss [8]: 9.98 L/kg
- Activity [9]: Non-Toxic
- Activity [10]: 50%
- Activity [11]: 50%
- Cmax [12]: 6220 ng/mL
- Activity [13]: 50%
- Activity [14]: 100%
- bioavailability [15]: 34.8%
- Activity [16]: Active
- Tmax [17]: 35.6 min
- Activity [18]: 75%
- inhibition [19]: 15%
- Activity [20]: 50%
- selectivity ratio at 0.5 h [21]: 23.7
- Activity [22]: 75%
- half-life [23]: 58.5 min
- inhibition [24]: 18%
- ED50 [25]: 42.2 mg/kg and 89 µmol/kg
- Activity [26]: 100%
- half-life [27]: 19.7 min
- half-life [28]: 57 min
- ED50 [29]: > 200 mg/kg and > 422 µmol/kg
- AUC at 8 h [30]: 2940 ng·h/mL
- Activity [31]: 75%
- Tmax [32]: 35.2 min
- Activity [33]: 25 - 100%
- Activity [34]: 100%
- Tmax [35]: 36.2 min
- AUC at 8 h [36]: 5110 ng·h/mL
- Cmax [37]: 880 ng/mL
- bioavailability [38]: 41.3%
- CL/F [39]: 480 mL/min/kg
- clearance [40]: 160 mL/min/kg
- Vdss [41]: 8.94 L/kg
- selectivity ratio at 0.5 h [42]: > 5.3

From ChEMBL document CHEMBL4311969, “Polygala tenuifolia-Acori tatarinowii herbal pair as an inspiration for substituted cinnamic α-asaronol esters: Design, synthesis, anticonvulsant activity, and inhibition of lactate dehydrogenase study” (Eur J Med Chem, 2019)
